This note sets out measurements from US12419871B2, “Biomolecules involved in Alzheimer's disease” (ELECTROPHORETICS LIMITED, priority 2015, dated 2025).

Where “and” joins values, the source holds several entries; their conditions need not be identical. Equal values may be shown once. Entries after “also recorded” stand apart in the source; their conditions may differ.

For the assay, the system named is TMHT (Thy-1 Mutated Human Tau) mice. Description: SysQuant analysis of protein and phosphorylation changes in brains of TMHT mice treated with CK1d inhibitors. It counts as in vivo, mouse. The following applies: for Mouse brain Log 2 Ck1 inhibitor: 2′,3′-cyclic-nucleotide 3′-phosphodiesterase / Mouse brain Log 2 Ck1 inhibitor: phosphatase 1 regulatory subunit 14A / effect of treatment on protein phosphatase 1 regulatory subunit 14A level in mouse brain (in words) / effect of treatment on 2′,3′-cyclic-nucleotide 3′-phosphodiesterase level in mouse brain (in words): 30 mg/kg; for effect of treatment on protein phosphatase 1 regulatory subunit 14A level in mouse brain (in words) / effect of treatment on 2′,3′-cyclic-nucleotide 3′-phosphodiesterase level in mouse brain (in words): TMHT model, treated orally 30 mg/kg; for effect of treatment on protein phosphatase 1 regulatory subunit 14A level in mouse brain (in words): versus vehicle alone (FIG. 5B); for effect of treatment on 2′,3′-cyclic-nucleotide 3′-phosphodiesterase level in mouse brain (in words): versus vehicle alone (FIG. 6B); for number of human tau peptides significantly (p<0.05) regulated in the hippocampi of treated mice: of 124 unique quantified peptides from human tau, 30 mg/kg orally. The method, then:
Starting at 8.5 months (±2 weeks) of age, TMHT mice received CK1d inhibitors 2-Methyl-amino-3-[(4-fluorophenyl)carbonyl]indolizine-1-carboxamide (PS278-05), 5-(1,3-benzoxazol-2-yl)-4-(pyridine-4-yl)pyrimidin-2-amine (PS110), compound PF4800567 (3-[(3-Chlorophenoxy)methyl]-1-(tetrahydro-2H-pyran-4-yl)-1H-pyrazolo[3,4-d]pyrimidin-4-amine; Tocris®) or vehicle (0.5% w/v methylcellulose) for 8 weeks (54 applications) at a dosage of 30 mg/kg body weight, orally via gavage.
In total 48 animals were used and allocated to 4 treatment groups.
Brain samples were collected within 10 minutes of euthanasia, washed in ice cold saline, transferred to a clean Eppendorf tube and immediately frozen in liquid nitrogen.
One hippocampus sample (left or right) from each of three animals in each of the vehicle, PS110 and PS278-05 groups were selected for analysis by SysQuant. A pool of all nine samples was also prepared as a reference channel. All TMT® labelling, mixing and mass spectrometry and bioinformatics studies were performed essentially as described in Section 4.1. For peptide and protein identification the UniProtKB mouse database was used, supplemented by inclusion of all human tau isoform entries.
All protein identification, peptide sequence, phosphorylation site information along with quantitative values and biological information relating to the peptide, protein and phosphorylation sites were assembled in a Microsoft Excel file (QuantSheet) to allow structured data analysis based on fold-change, significance, biological function and cellular localisation.
Similarly, the expression levels of total tau and for each phosphorylated serine, threonine and tyrosine amino acid in mouse brains following treatment with vehicle control or the CK1d inhibitors PS278-05 and PS110 were calculated.
All peptides that matched the human MAPT (P10636; SEQ ID NO:29) UniProt sequence and/or the mouse MAPT (P10637) were exported into a separate Microsoft Excel sheet. Ion intensity values for each phosphopeptide were summed and the average calculated for each treatment group (Vehicle control, PS110, PS278-05).

Setting [1] is: TMHT mice, hippocampus, 30 mg/kg orally via gavage, 8 weeks.

Turning to `Nc1ncc(-c2nc3ccccc3o2)c(-c2ccncc2)n1` [PS110, 5-(1,3-benzoxazol-2-yl)-4-(pyridin-4-yl)pyrimidin-2-amine], the “effect of treatment on protein phosphatase 1 regulatory subunit 14A level in mouse brain (in words)” value was “altering the concentration or amount; also recorded: upregulated” and the “effect of treatment on 2′,3′-cyclic-nucleotide 3′-phosphodiesterase level in mouse brain (in words)” value is “altering the concentration or amount; also recorded: upregulated”. In addition, under setting [1], the “Mouse brain Log 2 Ck1 inhibitor: Actin, alpha cardiac muscle 1” value was found to be 0.58; the “Mouse brain Log 2 Ck1 inhibitor: Antithrombin-III” value came out at 0.57; the “Mouse brain Log 2 Ck1 inhibitor: BH3-interacting domain death agonist” value is recorded as −0.53; the “Mouse brain Log 2 Ck1 inhibitor: Catenin delta-1” value is −2.26. In addition, under setting [1], the “Mouse brain Log 2 Ck1 inhibitor: Clathrin light chain B” value worked out at 0.70, the “Mouse brain Log 2 Ck1 inhibitor: Fibrinogen gamma chain” value was 1.01, the “Mouse brain Log 2 Ck1 inhibitor: GMP reductase 1” value is 0.68 and the “Mouse brain Log 2 Ck1 inhibitor: Guanine nucleotide-binding protein G(q) subunit alpha” value came out at 0.82. Under setting [1], the “Mouse brain Log 2 Ck1 inhibitor: Insulin-like growth factor-binding protein” value is on record as −0.53, the “Mouse brain Log 2 Ck1 inhibitor: KxDL motif-containing protein 1” value is on record as −0.58, the “Mouse brain Log 2 Ck1 inhibitor: Myelin-associated oligodendrocyte basic protein” value is given as 0.84 and the “Mouse brain Log 2 Ck1 inhibitor: Neutral alpha-glucosidase AB” value is on record as 0.52. In addition, under setting [1], the “Mouse brain Log 2 Ck1 inhibitor: Nuclear pore complex protein Nup155” value is given as −0.53, the “Mouse brain Log 2 Ck1 inhibitor: Protein KIAA1045” value is −0.63, the “Mouse brain Log 2 Ck1 inhibitor: Secernin-2” value is listed as −0.76 and the “Mouse brain Log 2 Ck1 inhibitor: Serum albumin” value came out at 0.69. Further, under setting [1], the “Mouse brain Log 2 Ck1 inhibitor: Short-chain specific acyl-CoA dehydrogenase, mitochondrial” value was determined as 0.54; the “Mouse brain Log 2 Ck1 inhibitor: Syntaphilin” value is reported as −0.71; the “Mouse brain Log 2 Ck1 inhibitor: Transmembrane protein 119” value was −0.66; the “Mouse brain Log 2 Ck1 inhibitor: cAMP-dependent protein kinase type 1” value came out at 0.53. Further, under setting [1], the “Mouse brain Log 2 Ck1 inhibitor: 2′,3′-cyclic-nucleotide 3′-phosphodiesterase” value is 0.63 and 0.57; the “Mouse brain Log 2 Ck1 inhibitor: phosphatase 1 regulatory subunit 14A” value was 0.71 and 0.69. Also, the “effect of treatment on protein phosphatase 1 regulatory subunit 14A level in mouse brain (in words)” value (listed as 5-(1,3-benzoxazol-2-yl)-4-(pyridine-4-yl)pyrimidin-2-amine) is given as “up-regulation”. For the same molecule, where the note is “TMHT mice, 8 weeks”, the “number of human tau peptides significantly (p<0.05) regulated in the hippocampi of treated mice” value amounted to 37.
On to `NC(=O)c1c(N)c(C(=O)c2ccc(F)cc2)n2ccccc12` [PS278, 2-amino-3-[(4-fluorophenyl)carbonyl]indolizine-1-carboxamide], for which, under setting [1], the “Mouse brain Log 2 Ck1 inhibitor: BH3-interacting domain death agonist” value is reported as −0.56, the “Mouse brain Log 2 Ck1 inhibitor: Catenin delta-1” value is recorded as −1.07, the “Mouse brain Log 2 Ck1 inhibitor: Centrosomal protein of 170 kDa” value was −0.51 and the “Mouse brain Log 2 Ck1 inhibitor: Clathrin light chain B” value is 0.50. Also, under setting [1], the Mouse brain Log 2 Ck1 inhibitor: Egl nine homolog 1 is -0.73, the “Mouse brain Log 2 Ck1 inhibitor: Guanine nucleotide-binding protein G(q) subunit alpha” value is recorded as 0.62, the “Mouse brain Log 2 Ck1 inhibitor: Lambda-crystallin homolog” value is 0.56 and the “Mouse brain Log 2 Ck1 inhibitor: Myelin-associated oligodendrocyte basic protein” value is recorded as 0.66. Under setting [1], the “Mouse brain Log 2 Ck1 inhibitor: Neutral alpha-glucosidase AB” value was −0.78; the “Mouse brain Log 2 Ck1 inhibitor: OCIA domain-containing protein 1” value is recorded as −0.59; the “Mouse brain Log 2 Ck1 inhibitor: Secernin-2” value is listed as −0.52; the “Mouse brain Log 2 Ck1 inhibitor: Short-chain specific acyl-CoA dehydrogenase, mitochondrial” value is 0.57. Besides, under setting [1], the “Mouse brain Log 2 Ck1 inhibitor: Synaptoporin” value was 0.72, the “Mouse brain Log 2 Ck1 inhibitor: Syntaphilin” value is recorded as −0.76, the “Mouse brain Log 2 Ck1 inhibitor: Transmembrane protein 119” value is −0.52 and the “Mouse brain Log 2 Ck1 inhibitor: Tubulin alpha chain-like 3” value is 0.67. Moreover, under setting [1], the “Mouse brain Log 2 Ck1 inhibitor: 2′,3′-cyclic-nucleotide 3′-phosphodiesterase” value is 0.62 and 0.63; the “Mouse brain Log 2 Ck1 inhibitor: phosphatase 1 regulatory subunit 14A” value is 0.49 and 0.71.
As for `CNc1c(C(N)=O)c2ccccn2c1C(=O)c1ccc(F)cc1` [PS278-05, 2-Methyl-amino-3-[(4-fluorophenyl)carbonyl]indolizine-1-carboxamide], the “effect of treatment on protein phosphatase 1 regulatory subunit 14A level in mouse brain (in words)” value is “up-regulation; also recorded: altering the concentration or amount; also recorded: upregulated” and the “effect of treatment on 2′,3′-cyclic-nucleotide 3′-phosphodiesterase level in mouse brain (in words)” value was “altering the concentration or amount; also recorded: upregulated”. The “number of human tau peptides significantly (p<0.05) regulated in the hippocampi of treated mice” value (TMHT mice, 8 weeks) came to 22.
